Source: US20260022142A1, “MACROCYCLIC IMMUNOMODULATORS” (Bristol-Myers Squibb Company, priority 2022, published 2026)
Bridge positions count the residues as written; N and C are the ends. Square brackets hold non-standard residues; d marks the D form. Peptide text beside a SMILES is read from it. * marks the point of attachment. Tyr(3,5-F2) = N[C@@H](Cc1cc(F)c(O)c(F)c1)C(=O)O; Tyr(3-Cl) = N[C@@H](Cc1ccc(O)c(Cl)c1)C(=O)O; Bip = N[C@@H](Cc1ccc(-c2ccccc2)cc1)C(=O)O; Phe(3-CN) = N#Cc1cccc(C[C@H](N)C(=O)O)c1; Phe(3-Me) = Cc1cccc(C[C@H](N)C(=O)O)c1; Phe(4-Me) = Cc1ccc(C[C@H](N)C(=O)O)cc1; mTyr = N[C@@H](Cc1cccc(O)c1)C(=O)O; 4Pal = N[C@@H](Cc1ccncc1)C(=O)O; Cha = N[C@@H](CC1CCCCC1)C(=O)O; dDab = NCC[C@@H](N)C(=O)O; Carboxymethyl = O=C(O)C*; Orn = NCCC[C@H](N)C(=O)O; Aun = NCCCCCCCCCCC(=O)O; Dab = NCC[C@H](N)C(=O)O; Dap = NC[C@H](N)C(=O)O; AEEA = NCCOCCOCC(=O)O; Ac3c = NC1(C(=O)O)CC1

Molecular target: T1, PD-1/PD-L1 interaction (PE-labeled human PD-L1-Ig binding to Jurkat cell line over-expressing human PD-1) (Homo sapiens, UniProt Q15116)
T1 construct: expressed in transfected cells; host or cells: Jurkat
Experiment: Jurkat-PD-1 Cell Binding High-Content Screening Assay (CBA)
Format: cell-based
Conditions: Jurkat cell line over-expressing human PD-1; PE-labeled PD-L1-Ig 20 nM final; read-out: Jurkat hPD1-PDL1 IC50
In short: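 First, compound is added to PD-1-expressing Jurkat cells in serum-containing DMEM and left 2 h at 37° C. Next, PE-conjugated PD-L1-Ig is introduced at 20 nM final concentration for 1 hour. Finally, cells are fixed in 4% paraformaldehyde with Hoechst 33342, washed and imaged.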

T1 sequence (Q15116 25-288): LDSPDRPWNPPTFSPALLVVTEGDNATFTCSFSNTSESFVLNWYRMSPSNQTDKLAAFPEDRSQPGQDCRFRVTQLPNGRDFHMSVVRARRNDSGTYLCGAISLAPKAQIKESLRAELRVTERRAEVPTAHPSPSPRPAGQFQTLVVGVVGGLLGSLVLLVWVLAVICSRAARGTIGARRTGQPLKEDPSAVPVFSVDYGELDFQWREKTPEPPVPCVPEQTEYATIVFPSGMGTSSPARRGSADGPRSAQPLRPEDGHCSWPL

Cc1cccc(C[C@@H]2NC(=O)[C@H](CC(=O)O)NC(=O)[C@H](Cc3ccc(OCC(=O)O)cc3)NC(=O)[C@H](CN)NC(=O)CSC[C@@H](C(=O)N[C@@H](CCN)C(=O)NCCOCCOCC(=O)NCCCCCCCCCCC(=O)O)NC(=O)[C@H](CCCN)NC(=O)[C@H](C(C)C)NC(=O)[C@H](CC3CCCCC3)NC(=O)[C@H](CCN)NC(=O)[C@@H](CC(C)C)NC(=O)[C@H](CCCN)NC(=O)[C@H](Cc3ccc(O)cc3)NC(=O)[C@H](Cc3ccc(-c4ccccc4)cc3)NC(=O)[C@H](Cc3cccc(C#N)c3)NC2=O)c1 [Compound 2072] ({CH2CO}-[Dap]Y(Carboxymethyl)D[Phe(3-Me)][Phe(3-CN)][Bip]Y[Orn][dL][Dab][Cha]V[Orn]C[Dab][AEEA][Aun]-OH; thioether N-14)
IC50: 8.5 nM

Cc1cccc(C[C@@H]2NC(=O)[C@H](CC(=O)O)NC(=O)[C@H](Cc3ccc(OCC(=O)O)cc3)NC(=O)[C@H](CN)NC(=O)CSC[C@@H](C(=O)N[C@@H](CCN)C(=O)NCCOCCOCC(=O)NCCCCCCCCCCC(=O)O)NC(=O)[C@H](CCCN)NC(=O)[C@H](C(C)C)NC(=O)[C@H](CC3CCCCC3)NC(=O)[C@H](CCN)NC(=O)[C@@H](CC(C)C)NC(=O)[C@H](CCCN)NC(=O)[C@H](Cc3ccc(O)cc3)NC(=O)[C@H](Cc3ccc(-c4ccccc4)cc3)NC(=O)[C@H](Cc3ccncc3)NC2=O)c1 [Compound 2073] ({CH2CO}-[Dap]Y(Carboxymethyl)D[Phe(3-Me)][4Pal][Bip]Y[Orn][dL][Dab][Cha]V[Orn]C[Dab][AEEA][Aun]-OH; thioether N-14)
IC50: 8.9 nM

Cc1ccc(C[C@@H]2NC(=O)[C@H](Cc3cccc(C)c3)NC(=O)[C@H](CC(=O)O)NC(=O)[C@H](Cc3ccc(OCC(=O)O)cc3)NC(=O)[C@H](CN)NC(=O)CSC[C@@H](C(=O)N[C@@H](CCN)C(=O)NCCOCCOCC(=O)NCCCCCCCCCCC(=O)O)NC(=O)[C@H](CCCN)NC(=O)[C@H](C(C)C)NC(=O)[C@H](CC3CCCCC3)NC(=O)[C@H](CCN)NC(=O)[C@@H](CC(C)C)NC(=O)[C@H](CCCN)NC(=O)[C@H](Cc3ccc(O)cc3)NC(=O)[C@H](Cc3ccc(-c4ccccc4)cc3)NC2=O)cc1 [Compound 2074] ({CH2CO}-[Dap]Y(Carboxymethyl)D[Phe(3-Me)][Phe(4-Me)][Bip]Y[Orn][dL][Dab][Cha]V[Orn]C[Dab][AEEA][Aun]-OH; thioether N-14)
IC50: 5.5 nM

Cc1cccc(C[C@@H]2NC(=O)[C@H](CC(=O)O)NC(=O)[C@H](Cc3ccc(OCC(=O)O)cc3)NC(=O)[C@H](CN)NC(=O)CSC[C@@H](C(=O)N[C@@H](CCN)C(=O)NCCOCCOCC(=O)NCCCCCCCCCCC(=O)O)NC(=O)[C@H](CCCN)NC(=O)[C@H](C(C)C)NC(=O)[C@H](CC3CCCCC3)NC(=O)[C@H](CCN)NC(=O)[C@@H](CC(C)C)NC(=O)[C@H](CCCN)NC(=O)[C@H](Cc3ccc(O)cc3)NC(=O)[C@H](Cc3ccc(-c4ccccc4)cc3)NC(=O)[C@H](Cc3ccc(O)c(Cl)c3)NC2=O)c1 [Compound 2075] ({CH2CO}-[Dap]Y(Carboxymethyl)D[Phe(3-Me)][Tyr(3-Cl)][Bip]Y[Orn][dL][Dab][Cha]V[Orn]C[Dab][AEEA][Aun]-OH; thioether N-14)
IC50: 14.3 nM

Cc1cccc(C[C@@H]2NC(=O)[C@H](CC(=O)O)NC(=O)[C@H](Cc3ccc(OCC(=O)O)cc3)NC(=O)[C@H](CN)NC(=O)CSC[C@@H](C(=O)N[C@@H](CCN)C(=O)NCCOCCOCC(=O)NCCCCCCCCCCC(=O)O)NC(=O)[C@H](CCCN)NC(=O)[C@H](C(C)C)NC(=O)[C@H](CC3CCCCC3)NC(=O)[C@H](CCN)NC(=O)[C@@H](CC(C)C)NC(=O)[C@H](CCCN)NC(=O)[C@H](Cc3ccc(O)cc3)NC(=O)[C@H](Cc3ccc(-c4ccccc4)cc3)NC(=O)[C@H](Cc3cc(F)c(O)c(F)c3)NC2=O)c1 [Compound 2076] ({CH2CO}-[Dap]Y(Carboxymethyl)D[Phe(3-Me)][Tyr(3,5-F2)][Bip]Y[Orn][dL][Dab][Cha]V[Orn]C[Dab][AEEA][Aun]-OH; thioether N-14)
IC50: 8.4 nM

Cc1cccc(C[C@@H]2NC(=O)[C@H](CC(=O)O)NC(=O)[C@H](Cc3ccc(OCC(=O)O)cc3)NC(=O)[C@H](CN)NC(=O)CSC[C@@H](C(=O)NC3(C(=O)NCCOCCOCC(=O)NCCCCCCCCCCC(=O)O)CC3)NC(=O)[C@H](CCCN)NC(=O)[C@H](C(C)C)NC(=O)[C@H](CC3CCCCC3)NC(=O)[C@H](CCN)NC(=O)[C@@H](CC(C)C)NC(=O)[C@H](CCCN)NC(=O)[C@H](Cc3ccc(O)cc3)NC(=O)[C@H](Cc3ccc(-c4ccccc4)cc3)NC(=O)[C@H](Cc3ccc(O)cc3)NC2=O)c1 [Compound 2077] ({CH2CO}-[Dap]Y(Carboxymethyl)D[Phe(3-Me)]Y[Bip]Y[Orn][dL][Dab][Cha]V[Orn]C[Ac3c][AEEA][Aun]-OH; thioether N-14)
IC50: 6.3 nM

Cc1cccc(C[C@@H]2NC(=O)[C@H](CC(=O)O)NC(=O)[C@H](Cc3ccc(OCC(=O)O)cc3)NC(=O)[C@H](Cc3ccc(OCC(=O)O)cc3)NC(=O)CSC[C@@H](C(=O)NC3(C(=O)NCCOCCOCC(=O)NCCCCCCCCCCC(=O)O)CC3)NC(=O)[C@H](CCCN)NC(=O)[C@H](C(C)C)NC(=O)[C@H](CC3CCCCC3)NC(=O)[C@H](CCN)NC(=O)[C@@H](CC(C)C)NC(=O)[C@H](CCCN)NC(=O)[C@H](Cc3ccc(O)cc3)NC(=O)[C@H](Cc3ccc(-c4ccccc4)cc3)NC(=O)[C@H](Cc3ccc(O)cc3)NC2=O)c1 [Compound 2078] ({CH2CO}-Y(Carboxymethyl)Y(Carboxymethyl)D[Phe(3-Me)]Y[Bip]Y[Orn][dL][Dab][Cha]V[Orn]C[Ac3c][AEEA][Aun]-OH; thioether N-14)
IC50: 3.9 nM

CC(C)C[C@H]1NC(=O)[C@H](CCCN)NC(=O)[C@H](Cc2ccc(O)cc2)NC(=O)[C@H](Cc2ccc(-c3ccccc3)cc2)NC(=O)[C@H](Cc2ccc(O)cc2)NC(=O)[C@H](Cc2cccc(O)c2)NC(=O)[C@H](CC(=O)O)NC(=O)[C@H](Cc2ccc(OCC(=O)O)cc2)NC(=O)[C@H](CN)NC(=O)CSC[C@@H](C(=O)N[C@@H](CCN)C(=O)NCCCCCCCCCCC(=O)O)NC(=O)[C@@H](CCN)NC(=O)[C@H](C(C)C)NC(=O)[C@H](CC2CCCCC2)NC(=O)[C@H](CCN)NC1=O [Compound 2079] ({CH2CO}-[Dap]Y(Carboxymethyl)D[mTyr]Y[Bip]Y[Orn][dL][Dab][Cha]V[dDab]C[Dab][Aun]-OH; thioether N-14)
IC50: 245 nM

CC(C)C[C@H]1NC(=O)[C@H](CCN)NC(=O)[C@H](Cc2ccc(O)cc2)NC(=O)[C@H](Cc2ccc(-c3ccccc3)cc2)NC(=O)[C@H](Cc2ccc(O)cc2)NC(=O)[C@H](Cc2cccc(O)c2)NC(=O)[C@H](CC(=O)O)NC(=O)[C@H](Cc2ccc(OCC(=O)O)cc2)NC(=O)[C@H](CN)NC(=O)CSC[C@@H](C(=O)N[C@@H](CCN)C(=O)NCCCCCCCCCCC(=O)O)NC(=O)[C@@H](CCN)NC(=O)[C@H](C(C)C)NC(=O)[C@H](CC2CCCCC2)NC(=O)[C@H](CCN)NC1=O [Compound 2080] ({CH2CO}-[Dap]Y(Carboxymethyl)D[mTyr]Y[Bip]Y[Dab][dL][Dab][Cha]V[dDab]C[Dab][Aun]-OH; thioether N-14)
IC50: 218 nM

Cc1cccc(C[C@@H]2NC(=O)[C@H](CC(=O)O)NC(=O)[C@H](Cc3ccc(OCC(=O)O)cc3)NC(=O)[C@H](CCCNC(=N)N)NC(=O)CSC[C@@H](C(=O)N[C@@H](CCN)C(=O)NCCCCCCCCCCC(=O)O)NC(=O)[C@H]([C@@H](C)O)NC(=O)[C@H](C(C)C)NC(=O)[C@H](CC3CCCCC3)NC(=O)[C@H](CCN)NC(=O)[C@@H](CC(C)C)NC(=O)[C@H](CCCN)NC(=O)[C@H](Cc3ccc(OCC(=O)O)cc3)NC(=O)[C@H](Cc3ccc(-c4ccccc4)cc3)NC(=O)[C@H](Cc3ccc(O)cc3)NC2=O)c1 [Compound 2081] ({CH2CO}-RY(Carboxymethyl)D[Phe(3-Me)]Y[Bip]Y(Carboxymethyl)[Orn][dL][Dab][Cha]VTC[Dab][Aun]-OH; thioether N-14)
IC50: 11.7 nM

Cc1cccc(C[C@@H]2NC(=O)[C@H](CC(=O)O)NC(=O)[C@H](Cc3ccc(OCC(=O)O)cc3)NC(=O)[C@H](CCCNC(=N)N)NC(=O)CSC[C@@H](C(=O)N[C@@H](CCN)C(=O)NCCCCCCCCCCC(=O)O)NC(=O)[C@H](CO)NC(=O)[C@H](C(C)C)NC(=O)[C@H](CC3CCCCC3)NC(=O)[C@H](CCN)NC(=O)[C@@H](CC(C)C)NC(=O)[C@H](CCCN)NC(=O)[C@H](Cc3ccc(OCC(=O)O)cc3)NC(=O)[C@H](Cc3ccc(-c4ccccc4)cc3)NC(=O)[C@H](Cc3ccc(O)cc3)NC2=O)c1 [Compound 2082] ({CH2CO}-RY(Carboxymethyl)D[Phe(3-Me)]Y[Bip]Y(Carboxymethyl)[Orn][dL][Dab][Cha]VSC[Dab][Aun]-OH; thioether N-14)
IC50: 22.7 nM

Cc1cccc(C[C@@H]2NC(=O)[C@H](CC(=O)O)NC(=O)[C@H](Cc3ccc(OCC(=O)O)cc3)NC(=O)[C@H](CCCNC(=N)N)NC(=O)CSC[C@@H](C(=O)N[C@@H](CCN)C(=O)NCCCCCCCCCCC(=O)O)NC(=O)[C@H](CO)NC(=O)[C@H](C(C)C)NC(=O)[C@H](CC3CCCCC3)NC(=O)[C@H](CCN)NC(=O)[C@@H](CC(C)C)NC(=O)[C@H](CCCN)NC(=O)[C@H](Cc3ccc(OCC(=O)O)cc3)NC(=O)[C@H](Cc3ccc(-c4ccccc4)cc3)NC(=O)[C@H](Cc3ccc(OCC(=O)O)cc3)NC2=O)c1 [Compound 2083] ({CH2CO}-RY(Carboxymethyl)D[Phe(3-Me)]Y(Carboxymethyl)[Bip]Y(Carboxymethyl)[Orn][dL][Dab][Cha]VSC[Dab][Aun]-OH; thioether N-14)
IC50: 8.3 nM

Cc1cccc(C[C@@H]2NC(=O)[C@H](CC(=O)O)NC(=O)[C@H](Cc3ccc(OCC(=O)O)cc3)NC(=O)[C@H](CN)NC(=O)CSC[C@@H](C(=O)N[C@@H](CCN)C(=O)NCCCCCCCCCCC(=O)O)NC(=O)[C@H](CO)NC(=O)[C@H](C(C)C)NC(=O)[C@H](CC3CCCCC3)NC(=O)[C@H](CCN)NC(=O)[C@@H](CC(C)C)NC(=O)[C@H](CCCN)NC(=O)[C@H](Cc3ccc(OCC(=O)O)cc3)NC(=O)[C@H](Cc3ccc(-c4ccccc4)cc3)NC(=O)[C@H](Cc3ccc(OCC(=O)O)cc3)NC2=O)c1 [Compound 2084] ({CH2CO}-[Dap]Y(Carboxymethyl)D[Phe(3-Me)]Y(Carboxymethyl)[Bip]Y(Carboxymethyl)[Orn][dL][Dab][Cha]VSC[Dab][Aun]-OH; thioether N-14)
IC50: 12.6 nM
